In patent publication US20180230160A1, “2-AMINO-7A-PHENYL-3,4,4A,5,7,7A-HEXAHYDROFURO[3,4-B]PYRIDINES AS BACE1 INHIBITORS” (H. Lundbeck A/S, priority 2015, published 2018):
Like-named read-outs stand apart in the source and are kept apart here.

How the values were obtained:
[1] = system: Aβ40 peptide; assay: Assessment of Aβ peptide levels in rat brain and plasma following BACE1 inhibition (Aβ40 ELISA); type: in vivo; settings: 3 hours post dose, vs vehicle
Procedure: Assessment of Aβ Peptide Levels in Rat Brain and Plasma Following BACE1 Inhibition. Animals.
(§1) Young adult Male Sprague Dawley rats of approximately 250 g weight were purchased from Charles River and received 0-30 mg/kg of vehicle (10% HP betaCD+1M MeSO4, pH 2.5) or test compounds (dissolved in vehicle) only by oral gavage (p.o). The compounds are dosed at a volume of 5 ml/kg. Cohorts of 5-10 animals were established for each treatment condition.
(§2) At T=180 minutes after initial dosing the animals were stunned and decapitated with a guillotine. Trunk-blood was sampled in EDTA coated tubes after decapitation of the animal. The blood was centrifuged at 2200G at 4° C. for 15 minutes and the plasma was collected and frozen at −80° C. The blood was aliquoted for Aβ ELISA and DMPK analysis. Immediately following sacrifice, the brain was extracted and split into 2 halves. The right hemibrains were snap frozen on dry ice and stored at −80° C. The left half was dissected; with the front forebrain taken for Aβ ELISA and the remainder used for DMPK analysis. These samples were also snap frozen on dry ice and stored at −80° C. until use for analysis.
The cortex samples were thawed slightly on wet ice before they were homogenized with a small volume dispersing instrument (T10 basic ULTRA-TURRAX®) which was set at speed 5 for approximately 5-7 sec. The tissue was processed in a 10 times volume of the weight, for example 100 mg of tissue was homogenized in 1000 μL of Homogenization buffer. Homogenization buffer: 50 ml Milli Q water+50 nM NaCl+0.2% Diethylamin (DEA)+1 tablet of Complete Protease inhibitor cocktail+1 nM 4-(2-aminoethyl) benzenesulfonyl fluoride hydrochloride irreversible serine protease inhibitor (AEBSF).
After homogenization 450 μL aliquots of the samples are collected into a 1.5 ml Eppendorf tube and placed on wet ice, 0.5% NP-40 (50 ul) was added to all samples and then they were incubated on ice for 30 min. After which all samples were sonicated using an Ultrasonic homogenizer with 20 kHz homogeneous sound (SONOPLUS HD2070, Bandelin Electronic) 10 pulse set at 12-13% power to extract all the Aβ species. The samples were then centrifuged (Ole Dich 157 MPRF Micro centrifuge) at 20000G for 20 minutes at 4° C. After centrifugation 285 μL of the supernatant was pipetted into 600 μL microtubes tubes and neutralized with 15 μL of 1M Tris-HCL buffer.
WAKO 294-62501 Human/Rat Abeta amyloid (40) kit was used for all ELISA analyses. 30 μL plasma samples or 30 μL of the cortex supernatants generated as described above were placed in 600 μL microtubes tubes on wet ice. To this 30 μL of 8M urea (AppliChem A1049, 9025) was added to generate a 2-fold dilution. Both plasma and cortex supernatants were incubated on ice for 30 min. Standard rows were prepared from the standard peptide stock provided in the kit and standard diluent containing 1.6M urea (200 μL 8M urea+800 μL of standard diluent) and 0.8M urea (400 μL 8M Urea+3600 μL Standard diluent). A serial 2-fold dilution of Aβ40 from 100 pmol/ml to 0 pmol/L was prepared for the assay.
After incubation with urea, all samples were further diluted by addition of 5 times standard diluent from the Kit. This was done by adding 240 μL Standard Diluent to 60 μL sample/urea mixture, which was then mixed well. 100 μL of each diluted sample was pipetted into designated wells of the ELISA plate in duplicates. The plate was then covered and incubated overnight at 4° C. The following day, the ELISA kit was brought to room temperature before use. The incubated plate was washed 5 times with the 20× washing solution diluted in Milli Q water. 100 μL HRP-conjugate was applied to each well, and the plate was covered and incubates at 4° C. for 1 hr. The wash was repeated again for 5 times. 100 μL 3,3′,5,5′-Tetramethylbenzidine (TMB) solution was applied to each well and the plate was covered and incubated in the dark at room temperature for 30 minutes. […]

[2] = Compound exposure in rat brain and plasma after oral dosing (DMPK analysis); type: in vivo; settings: male, Sprague Dawley, 3 hours post dose; for concentration at 3 h: read-out: Exp (exposure); for Kp at 3 h: brain/plasma, read-out: Brain/Plasma ratio
Procedure: as §1, §2
The results of the administration of representative Compounds of Examples 1, 2, 5, […], of brain and plasma samples collected at 3 hours post dose and then following exposures, as described above, are tabulated below.

[3] = target: human BACE1 (Homo sapiens, UniProt P56817); assay: BACE1 binding assay (SPA-based radioligand binding); parameters: biotin (biotinylated form); made in house; host or cells: Freestyle HEK293 cells; settings: pH 4.5, 10 nM radioligand, Ki=IC50/(1+L/Kd)
human BACE1, sequence (P56817 46-501): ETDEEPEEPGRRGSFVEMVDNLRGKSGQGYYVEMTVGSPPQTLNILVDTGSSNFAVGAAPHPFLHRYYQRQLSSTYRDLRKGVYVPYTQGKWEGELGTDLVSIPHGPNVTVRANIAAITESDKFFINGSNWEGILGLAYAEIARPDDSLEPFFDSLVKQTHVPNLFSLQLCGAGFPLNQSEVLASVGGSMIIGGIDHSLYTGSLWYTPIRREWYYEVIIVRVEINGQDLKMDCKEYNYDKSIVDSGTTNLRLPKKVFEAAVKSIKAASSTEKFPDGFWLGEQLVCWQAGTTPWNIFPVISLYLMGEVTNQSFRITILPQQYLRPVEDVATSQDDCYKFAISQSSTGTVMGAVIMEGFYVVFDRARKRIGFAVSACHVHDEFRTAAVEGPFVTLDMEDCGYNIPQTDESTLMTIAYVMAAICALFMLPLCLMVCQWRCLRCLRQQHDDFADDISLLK
Procedure: The binding assay was performed as SPA-based assay using a biotinylated form of human BACE1 recombinantly expressed and subsequently purified from Freestyle HEK293 cells. The binding assay was run in a 50 mM sodium acetate buffer, pH 4.5 containing 50 mM NaCl and 0.03% Tween-20 in white clear bottom 384 plates (Corning #3653). 10 nM (final concentration) radioligand ([^3H]—N-((1S,2R)-1-benzyl-3-cyclopropylamino-2-hydroxy-propyl)-5-(methanesulfonyl-methyl-amino)-N—((R)-1-phenyl-ethyl)-isophthalamide) (TRQ11569 purchased from GE Healthcare) was mixed with test compound at a given concentration, 6 nM (final concentration) human BACE1 and 25 μg Streptavidin coated PVT core SPA beads (RPNQ0007, GE Healthcare Life Sciences) in a total volume of 40 μl. Several concentrations of each test compound were tested in the assay for […] determination. The plates were incubated for one hour at room temperature and counted in a Wallac Trilux counter. Total and non-specific binding were determined using buffer and 1 μM (final concentration) of the high affinity BACE1 reference inhibitor (S)-6-[3-chloro-5-(5-prop-1-ynyl-pyridin-3-yl)-thiophen-2-yl]-2-imino-3,6-dimethyl-tetrahydro-pyrimidin-4-one, respectively. For each test compound, a 1050 value (the concentration mediating 50% inhibition of the specific binding of the radioligand) was determined from concentration-response curve and used to calculate the Ki from the equation Ki=IC50/(1+L/Kd), where L and Kd are the final concentration of the radioligand used in the assay and the dissociation constant of the radioligand, respectively. The Kd of the radioligand was determined from saturation binding experiments.

[4] = system: P-gp (MDR1); assay: MDCK-MDR1 assay (permeability, efflux ratio); type: in vitro ADME; settings: dog, Papp BA/Papp AB, 60-minute incubation
Procedure: The permeability of the test compounds was assessed in MDCK-MDR1 cells that were cultured to confluency (4-6 days) in a 96 transwell plate. Test compounds were diluted with the transport buffer (HBSS+1% BSA) to a concentration of 0.5 μM and applied to the apical or basolateral side of the cell monolayer. Permeation of the test compounds from A to B direction or B to A direction was determined in triplicate over a 60-minute incubation time at 37° C. and 5% CO2 with a relative humidity of 95%. Test compounds were quantified by LC-MS/MS analysis based on the peaks area ratios of analyte/IS in both the receiver and donor wells of the transwell plate. The apparent permeability coefficient Papp (cm/s) was calculated using the equation: […]
Where dCr/dt is the cumulative concentration of compound in the receiver chamber as a function of time (μM/s); Vr is the solution volume in the receiver chamber (0.05 mL on the apical side; 0.25 mL on the basolateral side); A is the surface area for the transport, i.e. 0.0804 cm^2 for the area of the monolayer; CO is the initial concentration in the donor chamber (μM).

[2H]C([2H])([2H])Oc1ccc(C(=O)Nc2ccc(F)c([C@]34COC[C@@]3(F)C[C@](C)(F)C(N)=N4)c2)nc1 [Example 1, N-(3-((3S,4aR,7aS)-2-amino-3,4a-difluoro-3-methyl-3,4,4a,5-tetrahydrofuro[3,4-b]pyridin-7a-yl)-4-fluorophenyl)-5-(methoxy-d3)picolinamide]
Aβ40 reduction ([1]; Brain, 10 mg/kg p.o.): 34%
Aβ40 reduction ([1]; Brain, 30 mg/kg p.o.): 54%
Aβ40 reduction ([1]; Plasma, 10 mg/kg p.o.): 38%
Aβ40 reduction ([1]; Plasma, 30 mg/kg p.o.): 52%
concentration at 3 h ([2]; Brain, 10 mg/kg p.o.): 194 ng/g
concentration at 3 h ([2]; Brain, 30 mg/kg p.o.): 951 ng/g
concentration at 3 h ([2]; Plasma, 10 mg/kg p.o.): 184 ng/g
concentration at 3 h ([2]; Plasma, 30 mg/kg p.o.): 634 ng/g
Kp at 3 h ([2]; 10 mg/kg p.o.): 1.06
Kp at 3 h ([2]; 30 mg/kg p.o.): 1.5

C[C@]1(F)C[C@]2(F)COC[C@]2(c2cc(NC(=O)c3cnc(C(F)F)cn3)ccc2F)N=C1N [Example 3, N-(3-((3S,4aR,7aS)-2-amino-3,4a-difluoro-3-methyl-3,4,4a,5,7,7a-hexahydrofuro[3,4-b]pyridin-7a-yl)-4-fluorophenyl)-5-(difluoromethyl)pyrazine-2-carboxamide]
Ki [3]: 48 nM
efflux ratio at 60 min, 0.5 μM [4]: 0.96

C[C@]1(F)C[C@]2(F)COC[C@]2(c2cc(NC(=O)c3ccc(Cl)cn3)ccc2F)N=C1N [Example 6, N-(3-((3S,4aR,7aS)-2-amino-3,4a-difluoro-3-methyl-3,4,4a,5,7,7a-hexahydrofuro[3,4-b]pyridin-7a-yl)-4-fluorophenyl)-5-chloropicolinamide]
Ki [3]: 6.4 nM
efflux ratio at 60 min, 0.5 μM [4]: 1.01

C[C@@]1(F)C[C@]2(F)COC[C@]2(c2cc(NC(=O)c3cnc(C(F)F)cn3)ccc2F)N=C1N [Example 8, N-(3-((3R,4aR,7aS)-2-amino-3,4a-difluoro-3-methyl-3,4,4a,5,7,7a-hexahydrofuro[3,4-b]pyridin-7a-yl)-4-fluorophenyl)-5-(difluoromethyl)pyrazine-2-carboxamide]
Ki [3]: 14 nM
efflux ratio at 60 min, 0.5 μM [4]: 1.23

Cc1csc(C(=O)Nc2ccc(F)c([C@]34COC[C@@]3(F)C[C@@](C)(F)C(N)=N4)c2)n1 [Example 9, N-(3-((3R,4aR,7aS)-2-amino-3,4a-difluoro-3-methyl-3,4,4a,5,7,7a-hexahydrofuro[3,4-b]pyridin-7a-yl)-4-fluorophenyl)-4-methylthiazole-2-carboxamide]
Ki [3]: 23 nM
efflux ratio at 60 min, 0.5 μM [4]: 1.33

Cc1nc(C(=O)Nc2ccc(F)c([C@]34COC[C@@]3(F)C[C@@](C)(F)C(N)=N4)c2)co1 [Example 10, N-(3-((3R,4aR,7aS)-2-amino-3,4a-difluoro-3-methyl-3,4,4a,5,7,7a-hexahydrofuro[3,4-b]pyridin-7a-yl)-4-fluorophenyl)-2-methyloxazole-4-carboxamide]
Ki [3]: 22 nM
efflux ratio at 60 min, 0.5 μM [4]: 2.46

[2H]C([2H])([2H])Oc1cnc(C(=O)Nc2ccc(F)c([C@]34COC[C@@]3(F)C[C@@](C)(F)C(N)=N4)c2)cn1 [Example 13, N-(3-((3R,4aR,7aS)-2-amino-3,4a-difluoro-3-methyl-3,4,4a,5-tetrahydrofuro[3,4-b]pyridin-7a-yl)-4-fluorophenyl)-5-(methoxy-d3)pyrazine-2-carboxamide]
Ki [3]: 29 nM

C[C@@]1(F)C[C@]2(F)COC[C@]2(c2cc(NC(=O)c3ccc(Cl)cn3)ccc2F)N=C1N [Example 14, N-(3-((3R,4aR,7aS)-2-amino-3,4a-difluoro-3-methyl-3,4,4a,5,7,7a-hexahydrofuro[3,4-b]pyridin-7a-yl)-4-fluorophenyl)-5-chloropicolinamide]
Ki [3]: 9.3 nM
efflux ratio at 60 min, 0.5 μM [4]: 0.91

NC1=N[C@@]2(c3cc(NC(=O)c4ccc(F)cn4)cc(F)c3F)COC[C@H]2C[C@]1(F)CF [Example 19, N-[3-[(3R,4aS,7aS)-2-amino-3-fluoro-3-(fluoromethyl)-4,4a,5,7-tetrahydrofuro[3,4-b]pyridin-7a-yl]-4,5-difluoro-phenyl]-5-fluoro-pyridine-2-carboxamide]
Ki [3]: 340 nM

COc1ccc(C(=O)Nc2cc(F)c(F)c([C@]34COC[C@H]3C[C@@](F)(CF)C(N)=N4)c2)nc1 [Example 25, N-[3-[(3S,4aS,7aS)-2-amino-3-fluoro-3-(fluoromethyl)-4,4a,5,7-tetrahydrofuro[3,4-b]pyridin-7a-yl]-4,5-difluoro-phenyl]-5-methoxy-pyridine-2-carboxamide]
Ki [3]: 230 nM
